# Measurements taken from PMC6400287 (Cell reports, 2018).
# Biological target: T1, REV-ERBα (Homo sapiens, UniProt P20393)
# T1 sequence (P20393 1-614): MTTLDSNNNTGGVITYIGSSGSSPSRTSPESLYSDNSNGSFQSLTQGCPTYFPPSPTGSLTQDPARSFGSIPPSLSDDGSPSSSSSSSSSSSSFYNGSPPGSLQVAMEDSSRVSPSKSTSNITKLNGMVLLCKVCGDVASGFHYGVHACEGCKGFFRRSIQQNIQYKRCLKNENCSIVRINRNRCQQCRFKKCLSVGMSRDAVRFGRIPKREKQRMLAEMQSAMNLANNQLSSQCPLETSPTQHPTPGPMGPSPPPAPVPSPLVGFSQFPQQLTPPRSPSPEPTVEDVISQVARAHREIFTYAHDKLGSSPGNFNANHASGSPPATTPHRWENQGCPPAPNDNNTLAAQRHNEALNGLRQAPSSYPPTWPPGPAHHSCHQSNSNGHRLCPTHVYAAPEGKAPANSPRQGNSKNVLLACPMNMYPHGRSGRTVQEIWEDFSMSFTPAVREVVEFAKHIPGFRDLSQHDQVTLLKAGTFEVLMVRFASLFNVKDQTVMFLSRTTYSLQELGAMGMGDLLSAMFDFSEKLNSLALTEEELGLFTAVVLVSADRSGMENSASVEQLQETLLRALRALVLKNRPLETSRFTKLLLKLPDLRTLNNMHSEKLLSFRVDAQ
# Experiment: cotransfection Il17a+CNS5 luciferase reporter assay in HEK293 cells
# Format: cell-based
smiles,measurement,value
CCOC(=O)N1CCC(CN(Cc2ccc(Cl)cc2)Cc2ccc([N+](=O)[O-])s2)C1 (stereo not shown) [SR9009],cotransfection Il17a+CNS5 luciferase reporter assay in HEK293 cells,Both SR9009 and SR12418 dose-dependently inhibited Il17a lucif-erase activity at REV-ERBα and REV-ERBβ
